This note sets out measurements from patent US9975852B2, “Quinoline sulfonyl derivatives and uses thereof” (Health Sciences North Research Institute, priority 2013, dated 2018).

One series deals with MDA-MB231. The series is described as follows: SRB antiproliferative assay, MDA-MB231. To be noted: Homo sapiens, MDA-MB-231, 48 h. Format: cell-based, human. How it is done: (§1) Antiproliferative effects were determined by a sulforhodamine B (SRB) based protocol. For a typical screening experiment, 5,000-10,000 cells were inoculated into 100 μl medium per well of a 96-well microtiter plate as described previously. […] Some of the sample wells were fixed with 25 μl of 50% trichloroacetic acid (TCA) as a control of the cell population for each cell line at the time of drug addition (Tz). An aliquot of the frozen stock was thawed and diluted to the desired final maximum test-concentration with complete medium. Two to ten-fold serial dilutions were made to provide a total of seven drug concentrations (and a control [C]). Following addition of drugs, the culture plate was incubated for additional 48 h. Cells were fixed in situ by slowly adding 25 μl of ice-cold 50% (w/v) TCA (final concentration, 10% TCA), and were then incubated for 60 min at 4° C. The supernatant was discarded, and the plate was washed five times with tap water, followed by air-dry. 50 μl of SRB solution at 0.4% (w/v) in 1% acetic acid was added to each well, and the plate was incubated for >30 min at room temperature. Unbound SRB was removed by five washes with tap water, followed by air-drying. […] The relative growth rate (%) was calculated for each of the compound concentrations according to the following formula: (Ti−Tz)/(C−Tz)×100 In the formula, time zero (Tz), control growth (C), and OD for different concentration of tested compounds (Ti). The GI50 for each compound was obtained from a non-linear Sigmoidal dose-response (variable slope) curve which is fitted by GraphPad Prism™ v.4.03 software. Values were calculated for each of these parameters if the level of activity was reached. However, if the effect was not reached or was exceeded, the value for that parameter was expressed as greater or less than the maximum or minimum concentration tested. Flow Cytometry
For orientation: In SRB staining, fixed cells bind dye roughly in proportion to their protein.

For another series, the system named is 184B5. The series is described as follows: SRB antiproliferative assay, 184B5 non-cancer breast cells. Format: cell-based, human. To be noted: Homo sapiens, read-out: GI50 184B5. How it is done:
as §1

In a further series the test system is MDA-MB468. Nature of the series: SRB antiproliferative assay, MDA-MB468. It counts as cell-based, human. To be noted: Homo sapiens, MDA-MB-468, 48 h. How it is done: as §1
Another series concerns MCF7. The series is described as follows: SRB antiproliferative assay, MCF7. It counts as cell-based, human. To be noted: Homo sapiens, MCF7; SRB, 48 h; read-out: GI50 MCF7. How it is done: as §1

Read-outs that look alike come from different tables or passages of the source.

In general, GI50 refers to the concentration giving 50% growth inhibition. As usually defined, the melting point is the temperature of the solid-liquid transition. Molecule `Cc1ccc(S(=O)(=O)N2CCN(c3ccnc4cc(C(F)(F)F)ccc34)CC2)cc1` [Compound 8, 4-[4-(Toluene-4-sulfonyl)-piperazin-1-yl]-7-trifluoromethyl-quinoline] returned a melting point of 126 to 128 °C. This molecule gave a GI50 with MDA-MB231 of 42.7 ± 0.83 µM. In addition, in the series with 184B5 (184B5, SRB, 48 h), the concentration for 50% growth inhibition (GI50) was 13 ± 0.14 µM. The molecule also had a GI50 in the series on MDA-MB468 of 36.5 ± 0.75 µM. In addition, the GI50 in the series with MCF7 was determined as 20.8 ± 0.23 µM.
In the case of `CS(=O)(=O)NCCCNc1ccnc2cc(Cl)ccc12` [Compound 15, N-[3-(7-Chloro-quinolin-4-ylamino)-propyl]-methanesulfonamide], the GI50 in the series with MDA-MB231 turned out to be 40.9 ± 1.52 µM; with 184B5 (184B5, SRB, 48 h) it was 23.3 ± 0.92 µM; in the series on MDA-MB468, 28.6 ± 1.03 µM; with MCF7, 23.1 ± 0.87 µM.
With `O=S(=O)(NCCCNc1ccnc2cc(Cl)ccc12)c1ccc(-c2ccccc2)cc1` [Compound 20, Biphenyl-4-sulfonic acid [3-(7-chloro-quinolin-4-ylamino)-propyl]-amide], the melting point lay in the range of 116 to 118 °C. The same molecule yielded a GI50 in the series with MDA-MB231 of 4.63 ± 0.42 µM. Further, in the series on 184B5 (184B5, SRB, 48 h), the GI50 stood at 2.41 ± 0.09 µM. The molecule also gave a GI50 in the series on MDA-MB468 of 4.46 ± 0.37 µM. For the same molecule, in the series on MCF7, the GI50 is 2.47 ± 0.23 µM.
On to `CN(C)c1cccc2c(S(=O)(=O)N3CCN(c4ccnc5cc(C(F)(F)F)ccc45)CC3)cccc12` [Compound 13, Dimethyl-{5-[4-(7-trifluoromethyl-quinolin-4-yl)-piperazine-1-sulfonyl]-naphthalen-1-yl}-amine], for which the melting point was 98 to 100 °C. Moreover, the GI50 in the series with MDA-MB231 is 22 ± 0.59 µM. For the same molecule, the GI50 in the series on 184B5 (184B5, SRB, 48 h) was 12 ± 0.15 µM. Also, the GI50 in the series on MDA-MB468 was 19 ± 0.55 µM. The GI50 in the series on MCF7 was 12.8 ± 0.21 µM.
In turn, `O=[N+]([O-])c1ccc(S(=O)(=O)NCCCNc2ccnc3cc(Cl)ccc23)c([N+](=O)[O-])c1` [Compound 17, N-[3-(7-Chloro-quinolin-4-ylamino)-propyl]-2,4-dinitro-benzenesulfonamide] had a melting point of 238 to 240 °C. Also, the 50% growth inhibitory concentration (GI50) with MDA-MB231 was determined as 8.85 ± 0.71 µM. Also, the GI50 in the series on 184B5 (184B5, 48 h) was 9.09 ± 0.56 µM. In addition, in the series with MDA-MB468, halving of growth (GI50) required 7.35 ± 0.23 µM. The GI50 in the series with MCF7 was found to be 6.16 ± 0.32 µM.
For `CS(=O)(=O)N1CCN(c2ccnc3cc(C(F)(F)F)ccc23)CC1` [Compound 11, 4-(4-Methanesulfonyl-piperazin-1-yl)-7-trifluoromethyl-quinoline], the melting point is 116 to 118 °C. For the same molecule, halving of growth in the series with MDA-MB231 (GI50) required 44.4 ± 0.85 µM. In addition, in the series with 184B5 (184B5, SRB, 48 h), the concentration for 50% growth inhibition (GI50) was 93.93 ± 0.89 µM. In the series on MDA-MB468, this molecule returned a GI50 of 28.6 ± 0.69 µM. Further, the 50% growth inhibitory concentration (GI50) in the series with MCF7 was found to be 25.6 ± 0.26 µM.
Take `O=S(=O)(c1ccc(Cl)cc1Cl)N1CCN(c2ccnc3cc(C(F)(F)F)ccc23)CC1` [Compound 10, 4-[4-(2,4-Dichloro-benzenesulfonyl)-piperazin-1-yl]-7-trifluoromethyl-quinoline]: the melting point fell in the range of 137 to 139 °C. In addition, the concentration for 50% growth inhibition (GI50) in the series with MDA-MB231 came to 20.3 ± 0.53 µM. The GI50 in the series on 184B5 (184B5, SRB, 48 h) came out at 20.4 ± 0.23 µM. In addition, growth in the series with MDA-MB468 was halved (GI50) at 18.6 ± 0.55 µM. Moreover, the GI50 in the series on MCF7 is 16.7 ± 0.19 µM.
Molecule `O=S(=O)(c1ccc(-c2ccccc2)cc1)N1CCN(c2ccnc3cc(Cl)ccc23)CC1` [Compound 3, 7-Chloro-4-(4-(biphenylsulfonyl)piperazin-1-yl)quinoline] yielded a melting point of 238 to 240 °C. In addition, the concentration for 50% growth inhibition (GI50) in the series on MDA-MB231 was found to be 26.2 ± 0.62 µM. For the same molecule, the 50% growth inhibitory concentration (GI50) in the series with 184B5 (184B5, SRB, 48 h) came to 16.4 ± 0.23 µM. In the series with MDA-MB468, this molecule showed a GI50 of 18.2 ± 0.54 µM. In addition, in the series on MCF7, the 50% growth inhibitory concentration (GI50) turned out to be 9.23 ± 0.21 µM.
For the molecule `O=[N+]([O-])c1cccc(S(=O)(=O)NCCCNc2ccnc3cc(Cl)ccc23)c1` [Compound 18, N-(3-(7-Chloroquinolin-4-ylamino)propyl)-3-nitrobenzenesulfonamide], the 50% growth inhibitory concentration (GI50) in the series on MDA-MB231 turned out to be 20.4 ± 1.15 µM; with 184B5 (184B5, SRB, 48 h), 15.8 ± 0.88 µM; in the series with MDA-MB468, 9.21 ± 0.65 µM; with MCF7, 8.62 ± 0.38 µM.
Molecule `COC(=O)c1sccc1S(=O)(=O)NCCCNc1ccnc2cc(C(F)(F)F)ccc12` [Compound 31, N-(3-(7-Trifluoromethyl-quinolin-4-ylamino)propyl)thiophene-3-sulfonamide-2-carbomethoxy ester] showed a melting point of 137 to 139 °C. The same molecule showed a 50% growth inhibitory concentration (GI50) in the series on MDA-MB231 of 7.48 ± 0.63 µM. The GI50 with 184B5 (184B5, SRB, 48 h) came to 12.1 ± 0.45 µM. The same molecule returned a concentration for 50% growth inhibition (GI50) in the series on MDA-MB468 of 4.55 ± 0.25 µM. Besides, the GI50 with MCF7 was 4.33 ± 0.23 µM.
`O=[N+]([O-])c1ccc(S(=O)(=O)N2CCN(c3ccnc4cc(C(F)(F)F)ccc34)CC2)c([N+](=O)[O-])c1` [Compound 12, 4-[4-(2,4-Dinitro-benzenesulfonyl)-piperazin-1-yl]-7-trifluoromethyl-quinoline] returned a melting point of 178 to 180 °C. Further, it took 24.3 ± 0.63 µM to inhibit growth in the series on MDA-MB231 by half (GI50). The GI50 in the series on 184B5 (184B5, 48 h) was determined as 37.78 ± 0.35 µM. In addition, the 50% growth inhibitory concentration (GI50) in the series with MDA-MB468 came to 19.2 ± 0.61 µM. Besides, in the series on MCF7, the GI50 worked out at 10.8 ± 0.12 µM.
Consider `CN(C)c1cccc2c(S(=O)(=O)N3CCN(c4ccnc5cc(Cl)ccc45)CC3)cccc12` [Compound 4, 5-(4-(7-Chloroquinolin-4-yl)piperazin-1-ylsulfonyl)-N,N-dimethylnaphthalen-1-amine], for which the melting point is 145 to 147 °C. Besides, halving of growth in the series with MDA-MB231 (GI50) required 35 ± 0.76 µM. Besides, in the series with 184B5 (184B5, SRB, 48 h), the GI50 was 28.25 ± 0.26 µM. The concentration for 50% growth inhibition (GI50) in the series on MDA-MB468 came to 27.5 ± 0.66 µM.
With `O=S(=O)(c1ccc(-c2ccccc2)cc1)N1CCN(c2ccnc3cc(C(F)(F)F)ccc23)CC1` [Compound 9, 4-[4-(Biphenyl-4-sulfonyl)-piperazin-1-yl]-7-trifluoromethyl-quinoline], the melting point was 148 to 150 °C. Further, the GI50 in the series with MDA-MB231 was 27.2 ± 0.61 µM. In the series with 184B5 (184B5, SRB, 48 h), the GI50 amounted to 19.1 ± 0.24 µM. For the same molecule, in the series with MDA-MB468, the GI50 turned out to be 20.5 ± 0.54 µM. The GI50 with MCF7 stood at 14.8 ± 0.19 µM.
`O=S(=O)(c1ccc(Cl)cc1)N1CCN(c2ccnc3cc(C(F)(F)F)ccc23)CC1` [Compound 7, 4-[4-(4-Chloro-benzenesulfonyl)-piperazin-1-yl]-7-trifluoromethyl-quinoline] registered a melting point of 144 to 146 °C. Besides, the GI50 in the series with MDA-MB231 was found to be 41.4 ± 0.83 µM. In the series with MDA-MB468, halving of growth (GI50) required 34.9 ± 0.78 µM. For the same molecule, the concentration for 50% growth inhibition (GI50) in the series with MCF7 was found to be 27.36 ± 0.27 µM.
`COC(=O)c1sccc1S(=O)(=O)N1CCN(c2ccnc3cc(Cl)ccc23)CC1` [Compound 2, Methyl 3-(4-(7-chloroquinolin-4-yl)piperazin-1-ylsulfonyl)thiophene-2-carboxylate] gave a melting point of 117 to 119 °C. In the series with MDA-MB231, this molecule yielded a 50% growth inhibitory concentration (GI50) of 40.4 ± 0.82 µM. Further, in the series on 184B5 (184B5, SRB, 48 h), the 50% growth inhibitory concentration (GI50) is 15.2 ± 0.18 µM. Besides, in the series on MDA-MB468, it took 30.2 ± 0.71 µM to inhibit growth by half (GI50). Further, the 50% growth inhibitory concentration (GI50) in the series with MCF7 was 22.37 ± 0.21 µM.
`CS(=O)(=O)NCCCNc1ccnc2cc(C(F)(F)F)ccc12` [Compound 23, N-[3-(7-Trifluoromethyl-quinolin-4-ylamino)-propyl]-methanesulfonamide] returned a melting point of 171 to 173 °C. This molecule also displayed a GI50 in the series with MDA-MB231 of 55.9 ± 1.56 µM. For the same molecule, the 50% growth inhibitory concentration (GI50) in the series on 184B5 (184B5, SRB, 48 h) was determined as 59.5 ± 1.56 µM. Further, it took 30.4 ± 0.99 µM to inhibit growth in the series on MDA-MB468 by half (GI50). The concentration for 50% growth inhibition (GI50) in the series with MCF7 came to 25.3 ± 1.23 µM.
With `Cc1ccc(S(=O)(=O)NCCCNc2ccnc3cc(Cl)ccc23)cc1` [Compound 16, N-[3-(7-Chloro-quinolin-4-ylamino)-propyl]-4-methyl-benzenesulfonamide], the concentration for 50% growth inhibition (GI50) in the series with MDA-MB231 is 6.16 ± 0.51 µM; with 184B5 (184B5, SRB, 48 h), 9.56 ± 0.53 µM; with MDA-MB468, 5.77 ± 0.41 µM; in the series with MCF7, 5.25 ± 0.45 µM.
On to `O=S(=O)(NCCCNc1ccnc2cc(Cl)ccc12)c1ccc(Cl)cc1` [Compound 19, 4-Chloro-N-(3-(7-chloroquinolin-4-ylamino)propyl)benzenesulfonamide], for which the concentration for 50% growth inhibition (GI50) in the series with MDA-MB231 is 11.8 ± 0.91 µM; in the series on 184B5 (184B5, SRB, 48 h), 6.36 ± 0.34 µM; with MDA-MB468, 8.34 ± 0.73 µM; with MCF7 it was 4.31 ± 0.32 µM.
